Assay results reported in PMC7435722, “Apoferritin and Apoferritin-Capped Metal Nanoparticles Inhibit Arginine Kinase of Trypanosoma brucei” (Molecules, 2020).
Like-named read-outs stand apart in the source and are kept apart here.

Test system: T1, arginine kinase of T. brucei (recombinant form)
T1 construct: gene AK1; recombinant, obtained from Rhodes University laboratory
Test: phosphate release, molybdate colorimetric […] nm, nonlinear Michaelis-Menten fit
Type: biochemical, Trypanosoma brucei
Settings: no inhibitor, Mg sulfate, 100 mM Tris-HCl pH 8.6, 30 °C

Structure (SMILES) | Km (2 mM L-arginine fixed, ATP 0.1-0.5 mM, read-out: Km (ATP)) [µM] | Km (0.5 mM ATP fixed, L-arginine 0.5-2.5 mM, read-out: Km (L-arginine)) [µM]
Nc1ncnc2c1ncn2[C@@H]1O[C@H](COP(=O)(O)OP(=O)(O)OP(=O)(O)O)[C@@H](O)[C@H]1O [ATP] | 5 | 
N=C(N)NCCC[C@H](N)C(=O)O [L-arginine] |  | 21 ± 10
